Consider one molecule from US20040241088A1, “Method for evaluating the efficacy of certain cancer treatments” (Georgetown University, priority 2003, published 2004).

The subject of assay [1] is components of the PI3K/AKT pathway and apoptosis. Put plainly: Western analysis of signal transduction and apoptosis proteins in PANC-1 cells. Format: cell-based, human. An excerpt:
(§1) Treatment of Pancreatic Cancer (PanCa) with the tumor targeting TfRscFv-LipA-AS HER-2 complex can down-regulate HER-2 expression (even when not overexpressed), thus negatively affecting cell growth/survival and positively enhancing apoptotic pathways leading to increased tumor cell killing.
The phosphorothioate sequence specific AS HER-2, complementary to the initiation codon region (5′-TCC ATG GTG CTC ACT-3′), and the control, non-sequence specific SC (5′-CTA GCC ATG CTT GTC-3′) ODNs were synthesized and purified by reverse phase HPLC by Ransom Hill Biosciences (Ramona, Calif.). […] PANC-1 or COLO 357 cells were seeded/in a six well plate and transfected 24 hours later with the TfRscFv-LipA complex carrying 1 μM (for PANC-1) or 0.5 μM (for COLO 357) AS HER-2 or SC HER-2 ODN (negative control). The cells were transfected with either oligo alone or, to look for a synergistic effect, in combination with gemcitabine (Gemzar®). At the indicated times, the cells were harvested, lysed in RIPA buffer, protein determined, run (60 ug total protein/lane) on a 4-20% gradient polyacrylamide/SDS gel and transferred to nitrocellulose for Western analysis as described in Examples 1, 3 and 4. To detect HER-protein expression the membranes were probed with the anti-human HER-2/Neu (C-18) rabbit polyclonal Ab (Santa Cruz Biotechnology) and the signal detected by ECL (Amersham). Change in protein expression as compared to untreated cells was also ascertained for total and/or phosphorylated Akt (Ser 473), a central component in the PI3K pathway (using an anti-Human polyclonal Ab, Cell Signaling Technology),phosphorylated BAD (Ser 136), an important factor in regulation of apoptosis (using an anti-human rabbit polyclonal antibody, Cell Signaling Technology), as well as cleaved caspase 3 (Asp 175) (using the rabbit polyclonal antibody, specific for the 17 kDa subunit, Cell Signaling Technology) and PARP/cleaved PARP (poly ADP ribopolymerase, another marker of apoptosis) using an anti-human rabbit polyclonal antibody, (Cell Signaling Technology) both downstream indicators of apoptosis.

Assay [2] relates to 17 kDa cleaved caspase 3 fragment. The assay can be described thus: Tumor-specific localization of the 17 kDa fragment in tumor, liver and lung of PANC-1 xenograft mice. Format: in vivo. The note with it: PANC-1 tumor; ODN 10 mg/kg i.v. daily for six days; Gemzar 60 mg/kg i.p. x3; 24 hours after last injection.
Method: PANC-1 tumors were induced by implantation of <1 mm^3 tumor sections from serially passaged PANC-1 xenograft tumors into 4-6 week old female nude mice. When the tumors reached approximately 100-200 mm^3 the TfRscFv-LipA-AS HER-2 complex was i.v. injected into the tail vein daily for six days. The dose of ODN (AS or SC) administered per mouse was 10 mg/kg/injection. For comparison to standard therapy, a separate animal received chemotherapeutic agent Gemzar® (i.p.) only (60 mg/kg/injection) every other day to a total of three injections. In addition, one mouse received the combination of TfRscFv-LipA-AS HER-2 and Gemzar® at the above dose and schedule, and, as a control, one received the combination of complex carrying SC ODN and Gemzar® at the above dose and schedule. All mice were sacrificed 24 hours after the last injection and tumor, liver and lung were harvested as in Example 1. To assess tumor specific targeting in this model HER-2 and the 17 kDa cleaved caspase 3 fragment expression in the tissues was examined by Western Blot analysis Examples 3 and 4. The effect of TfRscFv-LipA-AS HER-2 on induction of the 17 kDa fragment in tumor and tissue samples also screened for HER-2 levels was examined.
Assay [3] deals with 17 kDa fragment of caspase 3. The assay can be described thus: 17 kDa fragment of caspase 3 in PANC-1 cells in vitro (Western). It is filed as cell-based, human. The note with it: 9 hours, Gemzar 0.8 μM, ODN 1 μM. The method, then:
A. To detect the presence of the 17 kDa active caspase 3 fragment in cell cultures the following procedure was used in subsequent Examples to isolate total protein from both living and dead floating cells. The medium from the cell culture vessel was removed and reserved.
To lyse the cells, resuspend the cell pellet in 150 μl-200 μl RIPA buffer (with freshly prepared inhibitors) per 3×10^6 cells. RIPA buffer is 1×PBS, 1% NP40, 0.5% sodium deoxycholate, 0.1% SDS (this may be made in large volumes). Add inhibitors at time of use from the following stock solutions:
In a further specific embodiment of this invention, it was determined that the cleaved 17 kDa subunit can be detected in tumor and/or blood as a means of verifying the efficacy of therapy with antisense (AS) HER-2, i.e. that the apoptotic pathway is induced by AS HER-2 treatment. […]
Also evaluated in vitro was the induction of the 17 kDa fragment by the combination of the TfRscFv-LipA-AS HER-2 plus the chemotherapeutic agent Gemzar® (gemcitabine).

Assay [4] deals with components of the PI3K/AKT pathway and apoptosis. The assay can be described thus: Western analysis of signal transduction and apoptosis proteins in COLO357 cells. The note with it: 8 hrs post-transfection. It is filed as cell-based.
Source text: as §1
The phosphorothioate sequence specific AS HER-2, complementary to the initiation codon region (5′-TCC ATG GTG CTC ACT-3′), and the control, non-sequence specific SC (5′-CTA GCC ATG CTT GTC-3′) ODNs were synthesized and purified by reverse phase HPLC by Ransom Hill Biosciences (Ramona, Calif.). […] PANC-1 or COLO 357 cells were seeded/in a six well plate and transfected 24 hours later with the TfRscFv-LipA complex carrying 1 μM (for PANC-1) or 0.5 μM (for COLO 357) AS HER-2 or SC HER-2 ODN (negative control). The cells were transfected with either oligo alone or, to look for a synergistic effect, in combination with gemcitabine (Gemzar®). At the indicated times, the cells were harvested, lysed in RIPA buffer, protein determined, run (60 ug total protein/lane) on a 4-20% gradient polyacrylamide/SDS gel and transferred to nitrocellulose for Western analysis as described in Examples 1, 3 and 4. To detect HER-protein expression the membranes were probed with the anti-human HER-2/Neu (C-18) rabbit polyclonal Ab (Santa Cruz Biotechnology) and the signal detected by ECL (Amersham). […]

The subject of assay [5] is PANC-1 xenograft tumors. Put plainly: In vivo chemosensitization: growth of subcutaneous PANC-1 xenograft tumors. On the set-up: species or system mice. The note with it: complex i.v. three times per week, ODN 9 mg/kg (18 injections); Gemzar i.p. twice weekly 60 mg/kg (12 injections).
Method: The efficacy of the TfRscFv-LipA-AS HER-2 in treating PanCa in vivo was assessed using the subcutaneous PANC-1 xenograft mouse model. Athymic nude mice (5-9 mice/group with two tumors/mouse) bearing subcutaneous xenograft tumors of ˜50 mm^3 were treated three times per week with the TfRscFv-LipA-AS HER-2 complex containing ODN at 9 mg/kg/injection. As controls one group of animals received Gemzar® alone, the TfRscFv-LipA-AS HER-2 alone, or the combination of Gemzar® and the complex carrying the SC ODN. Gemzar® was given I.P. twice weekly at 60 mg/kg. The animals received a total of 18 i.v. injections of complex and 12 of Gemzar®.

Each structure is given as a SMILES string.

`Nc1ccn([C@@H]2O[C@H](CO)[C@@H](O)C2(F)F)c(=O)n1` [Gemzar®, gemcitabine]: in assay [1] (8 hours post-transfection), the “cleaved caspase 3 (appearance of the 17 kDa protein)” value is reported as “not in those cells”. Moreover, in assay [1] (16 hours post-transfection), the “cleaved PARP” value is given as “evident” and the “cleaved caspase 3 (17 kDa fragment)” value is on record as “evident”. The “induction of the 17 kDa fragment in the tumor” value in assay [2] is given as “not evident”. Moreover, in assay [3], the “expression of 17 kDa fragment” value is reported as “did not result in the expression of this fragment above background levels”. Besides, in assay [4], the “cleaved PARP” value was “little or no evidence” and the “cleaved caspase 3 (17 kDa subunit)” value is “little or no evidence”. Moreover, in assay [5], the tumor growth entry was “only minimal effect”.
